One assay addresses hCA XII (Homo sapiens, UniProt O43570). The experiment in a line: CA inhibition assay (hydrolysis of 4-nitrophenylacetate). It is filed as biochemical. The note with it: 4-NPA hydrolysis; three independent assays, relative errors 5–10%. The source says:
(§1) Carbonic anhydrase has the ability to catalyse the hydrolysis of 4-NPA. […] More detailed operations and specific parameters are as reported earlier.

The next assay addresses hCA II (Homo sapiens, UniProt P00918). Described as above. It is filed as biochemical. As to conditions: 4-NPA hydrolysis; three independent assays, relative errors 5–10%.
Description: as §1

In a further assay the target is hCA IX (Homo sapiens, UniProt Q16790). The assay is described as above. As to conditions: 4-NPA hydrolysis; three independent assays, relative errors 5–10%. Type of assay: biochemical.
Description: as §1

Assay [1] deals with MDA-MB-231 cells. In words: Measurement of extracellular pH. It is filed as cell-based. As to conditions: for Extracellular pH, Hypoxic condition: hypoxia, control 6.84; for Extracellular pH, Normoxic condition: normoxia, control 7.06; for effect on extracellular pH: MDA-MB-231, 0.1 mM and 1.0 mM. The method, then: The main role of CA IX and XII in tumour development is to regulate the pH of the tumour growth microenvironment so that tumour cells are in a weakly acidic environment. Such an acidic environment is conducive to the growth of tumour cells and protects tumour cells from being killed by chemotherapeutics.
(§2) The changes in extracellular pH were evaluated according to previously published procedures. Cancer cells were grown in the medium containing 10% FBS and incubated in 6-well plates for 12 h. After removing the medium, we added fresh medium to the 6-well plates and incubated them for 48 h under hypoxia or normoxia. Then, we measured the pH of the culture medium immediately after collection. The tested compounds were dissolved in DMSO and diluted to the desired concentration. After the addition of tested compounds, the same procedure was carried out.

Assay [2] concerns MDA-MB-231 cells. The experiment in a line: CCK-8 cell viability assay. It is filed as cell-based. As to conditions: Homo sapiens, MDA-MB-231, 400 μM, 48 h. The method, then: (§3) The CCK-8 assay was used to evaluate the cytotoxicity of compounds 16a, 16b, and 16e on the breast cancer cell line MDA-MB-231 and colon cancer cell line HT-29. MDA-MB-231 and HT-29 are tumour cells that have been reported to express CA IX. We cultivated them under normoxia and hypoxia respectively and then evaluated the effects of the compounds on tumour cell viability at different concentrations.
(§4) Cell viability was tested by CCK-8 assay. The MDA-MB-231, HT-29 and MG-63 cell lines were provided by KeyGEN BioTECH Ltd. (Nanjing, Jiangsu, China). The cancer cell suspension was prepared to 5.0 × 10^4 cells/mL. After adding 100 μL cell suspension into each well of 96-well plates, the 96-well plates were placed in the incubator at 37 °C and 5% CO2 for 24 h. The compounds were diluted to the required concentration with the medium, and 100 μL of the corresponding medium was added to each well. Meanwhile, the negative control group was set up. The plates were incubated in normoxia or hypoxia for 48 h. The CCK-8 solution (10 μL) was added to each well, and the cells were incubated for another 3 h. After removing the bubbles in each well, cell viability was assessed by measuring the absorbance at 450 nm wavelength using a microplate reader. The hypoxia atmosphere consisted of 0.5% O2, 5% CO2, and 94.5% N2. The normoxia atmosphere was air.

For assay [3], the system named is HT-29 cells. The experiment in a line: CCK-8 cell viability assay. It is filed as cell-based. The note with it: for viability at 400 µM: Homo sapiens, HT-29, 400 μM, 48 h; for decrease in cell viability: HT-29, highest concentration of 400 μM. As for the experimental part: as §3, §4
(In general: Formazan colour is commonly taken as a measure of viable cells.)

Assay [4] relates to HT-29 cells. In words: Measurement of extracellular pH. It is filed as cell-based. The note with it: for Extracellular pH, Hypoxic condition: hypoxia, control 6.81; for Extracellular pH, Normoxic condition: normoxia, control 7.02; for effect on extracellular pH: HT-29, 0.1 mM and 1.0 mM. The method, then: The main role of CA IX and XII in tumour development is to regulate the pH of the tumour growth microenvironment so that tumour cells are in a weakly acidic environment. Such an acidic environment is conducive to the growth of tumour cells and protects tumour cells from being killed by chemotherapeutics. We evaluated the effects of 0.1 mM and 1.0 mM of compounds 16a and 16b on the pH of the tumour cell growth environment under normoxia or hypoxia (detailed data is provided in the Tables S5 and S6 of supplementary information).
as §2

The test system of another assay is MG-63 cells. The experiment in a line: CCK-8 cell viability assay. As to conditions: for viability at 800 µM: Homo sapiens, MG-63, 800 μM, 48 h. It is filed as cell-based, human. As for the experimental part:
The human osteosarcoma cell line MG-63 is a high-expressing cell line of CA IX and XII [24]. We selected compound 16b with the best activity in the above studies to study the cell viability inhibitory activity of MG-63 (detailed data is provided in the Table S4 of supplementary information).
as §4

Assay [5] relates to MDA-MB-231 cells. In words: Cell migration (scratch wound) assay. It is filed as cell-based. The note with it: MDA-MB-231, 400 μM, hypoxia. As for the experimental part: Tumour cell migration is one of the basic biological characteristics of tumour cells. […] MDA-MB-231 was selected as the experimental cell line to explore the ability of 16a to reduce tumour cells migration under hypoxia.
MDA-MB-231 cells (1 × 10^5 cells/well) were cultured in 6-well plates and wounded by scratching with a pipette tip. The wounded cell monolayers were washed three times with PBS and incubated with serum-free medium.

Setting [6] is: hypoxia, read-out: cell viability, Hypoxic condition (%).
Setting [7] is: normoxia, read-out: cell viability, Normoxic condition (%).

The results in this text go back to publication PMC8704611, “Synthesis, Molecular Docking Analysis, and Biological Evaluations of Saccharide-Modified Sulfonamides as Carbonic Anhydrase IX Inhibitors” (International Journal of Molecular Sciences, 2021).

For orientation: IC50 means the concentration that gives 50% inhibition. High values mean lower potency, low ones higher potency. In general, viability refers to the share of living cells, or the viability signal relative to a control.

Read-outs that look alike come from different tables or passages of the source.

Chain of hCA XII (O43570 25-354): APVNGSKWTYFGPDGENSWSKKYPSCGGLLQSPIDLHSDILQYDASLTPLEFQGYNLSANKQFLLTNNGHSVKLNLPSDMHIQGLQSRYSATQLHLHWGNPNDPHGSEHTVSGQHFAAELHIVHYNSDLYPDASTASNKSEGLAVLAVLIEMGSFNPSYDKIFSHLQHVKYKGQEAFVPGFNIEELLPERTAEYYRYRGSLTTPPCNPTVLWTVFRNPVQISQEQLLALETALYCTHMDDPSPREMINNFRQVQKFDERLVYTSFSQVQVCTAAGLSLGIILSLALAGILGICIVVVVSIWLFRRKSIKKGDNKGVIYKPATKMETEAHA

Take `COc1cc(-c2cn(-c3ccc(S(N)(=O)=O)cc3)nn2)ccc1NC(=O)CCCC(=O)N[C@@H]1O[C@H](CO)[C@@H](O)[C@H](O)[C@H]1O` [Compound 16m, N^1-(2-methoxy-4-(1-(4-sulfamoylphenyl)-1H-1,2,3-triazol-4-yl)phenyl)-N^5-((2R,3R,4S,5S,6R)-3,4,5-trihydroxy-6-(hydroxymethyl)tetrahydro-2H-pyran-2-yl)glutaramide]: the IC50 against hCA XII is 146 nM; on hCA II it was 88.1 nM; against hCA IX it was 99.6 nM.
Turning to `CC(=O)Nc1nnc(S(N)(=O)=O)s1` [AZM, acetazolamide, reference compound], the “Extracellular pH, Hypoxic condition” value in the assay with MDA-MB-231 cells [1] (MDA-MB-231, 0.1 mM) is 6.97; with HT-29 cells [4] (HT-29, 0.1 mM) it was 6.90; in the assay on HT-29 cells [4] (HT-29, 1.0 mM), 7.28. Further, the “Extracellular pH, Normoxic condition” value stood at 7.05 in the assay with MDA-MB-231 cells [1] (MDA-MB-231, 0.1 mM); 7.23 in the assay on MDA-MB-231 cells [1] (MDA-MB-231, 1.0 mM); 6.97 in the assay on HT-29 cells [4] (HT-29, 0.1 mM); 7.26 with HT-29 cells [4] (HT-29, 1.0 mM). Besides, the viability at 400 µM with MDA-MB-231 cells [2] (setting [6]) is 85.2 ± 1.96%; in the assay on MDA-MB-231 cells [2] (setting [7]) it was 96.2 ± 2.28%; with HT-29 cells [3] (setting [6]), 89.53 ± 0.161%; in the assay with HT-29 cells [3] (setting [7]), 91.7 ± 2.59%. Further, the viability at 800 µM in the assay with MG-63 cells (setting [6]) stood at 81.7 ± 1.17%; in the assay with MG-63 cells (setting [7]), 87.1 ± 1.94%.
`Cc1cc(-c2cn(-c3ccc(S(N)(=O)=O)cc3)nn2)ccc1NC(=O)CCC(=O)N[C@@H]1O[C@H](CO)[C@@H](O)[C@H](O)[C@H]1O` [Compound 16e, N^1-(2-methyl-4-(1-(4-sulfamoylphenyl)-1H-1,2,3-triazol-4-yl)phenyl)-N^4-((2R,3R,4S,5S,6R)-3,4,5-trihydroxy-6-(hydroxymethyl)tetrahydro-2H-pyran-2-yl)succinamide]: the IC50 at hCA XII was determined as 162 nM; against hCA II, 41.6 nM; on hCA IX, 84.7 nM. The viability at 400 µM with MDA-MB-231 cells [2] (setting [6]) amounted to 90.6 ± 2.76%; with MDA-MB-231 cells [2] (setting [7]), 87.2 ± 2.28%; in the assay with HT-29 cells [3] (setting [6]), 87.7 ± 1.79%; in the assay with HT-29 cells [3] (setting [7]) it was 91.5 ± 2.64%.
With `NS(=O)(=O)c1ccc(-n2cc(-c3cccc(NC(=O)CCC(=O)N[C@@H]4O[C@H](CO)[C@@H](O)[C@H](O)[C@H]4O)c3)nn2)cc1` [Compound 16b, N^1-(3-(1-(4-sulfamoylphenyl)-1H-1,2,3-triazol-4-yl)phenyl)-N^4-((2R,3R,4S,5S,6R)-3,4,5-trihydroxy-6-(hydroxymethyl)tetrahydro-2H-pyran-2-yl)succinamide], the IC50 at hCA XII amounted to 256 nM; on hCA II it was 13.3 nM; on hCA IX, 86.6 nM. In addition, the “effect on extracellular pH” value with MDA-MB-231 cells [1] and with HT-29 cells [4] was “improve the extracellular pH” each time. For the same compound, the “Extracellular pH, Hypoxic condition” value in the assay with MDA-MB-231 cells [1] (MDA-MB-231, 0.1 mM) worked out at 6.88; with MDA-MB-231 cells [1] (MDA-MB-231, 1.0 mM) it was 7.20; in the assay with HT-29 cells [4] (HT-29, 0.1 mM), 6.82; in the assay with HT-29 cells [4] (HT-29, 1.0 mM) it was 7.27. In addition, the “Extracellular pH, Normoxic condition” value in the assay with MDA-MB-231 cells [1] (MDA-MB-231, 0.1 mM) is on record as 7.02; in the assay on MDA-MB-231 cells [1] (MDA-MB-231, 1.0 mM), 7.20; with HT-29 cells [4] (HT-29, 0.1 mM), 6.96; in the assay on HT-29 cells [4] (HT-29, 1.0 mM), 7.15. The viability at 400 µM with MDA-MB-231 cells [2] (setting [6]) is 86.5 ± 1.92%; with MDA-MB-231 cells [2] (setting [7]), 90.5 ± 0.965%; with HT-29 cells [3] (setting [6]), 81.1 ± 2.43%; with HT-29 cells [3] (setting [7]), 89.67 ± 0.554%. Besides, the “decrease in cell viability” value with HT-29 cells [3] is 20%. In addition, the viability at 800 µM in the assay on MG-63 cells (setting [6]) stood at 76.6 ± 3.51%; in the assay on MG-63 cells (setting [7]) it was 81.6 ± 3.34%. In addition, the “inhibition of MG-63 cell viability” value in the assay with MG-63 cells (MG-63, normoxia and hypoxia) is “concentration-dependent”.
In the case of `NS(=O)(=O)c1ccc(-n2cc(-c3ccc(NC(=O)CCC(=O)N[C@@H]4O[C@H](CO)[C@@H](O)[C@H](O)[C@H]4O)cc3)nn2)cc1` [Compound 16a, N^1-(4-(1-(4-sulfamoylphenyl)-1H-1,2,3-triazol-4-yl)phenyl)-N^4-((2R,3R,4S,5S,6R)-3,4,5-trihydroxy-6-(hydroxymethyl)tetrahydro-2H-pyran-2-yl)succinamide], the IC50 at hCA XII worked out at 135 nM; at hCA II, 27.7 nM; against hCA IX it was 51.6 nM. Further, the “effect on extracellular pH” value in the assay with MDA-MB-231 cells [1] and in the assay on HT-29 cells [4] was “improve the extracellular pH” throughout. For the same compound, the “Extracellular pH, Hypoxic condition” value in the assay with MDA-MB-231 cells [1] (MDA-MB-231, 0.1 mM) was found to be 6.9; in the assay on MDA-MB-231 cells [1] (MDA-MB-231, 1.0 mM), 7.31; in the assay on HT-29 cells [4] (HT-29, 0.1 mM), 6.88; with HT-29 cells [4] (HT-29, 1.0 mM), 7.26. Further, the “Extracellular pH, Normoxic condition” value with MDA-MB-231 cells [1] (MDA-MB-231, 0.1 mM) came out at 7.04; with MDA-MB-231 cells [1] (MDA-MB-231, 1.0 mM), 7.21; in the assay with HT-29 cells [4] (HT-29, 0.1 mM) it was 6.97; in the assay on HT-29 cells [4] (HT-29, 1.0 mM), 7.13. Also, the “effect on tumour cell migration” value was “could hardly be detected” in the assay on MDA-MB-231 cells [5] (at 72 h) and “slight inhibitory effect” with MDA-MB-231 cells [5] (first 24 h, vs blank group). Moreover, the viability at 400 µM is 85.1 ± 1.68% in the assay with MDA-MB-231 cells [2] (setting [6]), 88.9 ± 1.71% with MDA-MB-231 cells [2] (setting [7]), 82.6 ± 1.92% with HT-29 cells [3] (setting [6]) and 83.3 ± 2.09% in the assay on HT-29 cells [3] (setting [7]). The “decrease in cell viability” value in the assay with HT-29 cells [3] is 20%.
